Laboratory results published in publication PMC11096368, “Transcriptomic signature, bioactivity and safety of a non-hepatotoxic analgesic generating AM404 in the midbrain PAG region” (Scientific Reports, 2024).
Read-outs that look alike come from different tables or passages of the source.

How the values were obtained:
Assay type in all cases: in vivo
[1] = test system: liver of CD1 mice; test: Hepatotoxicity at 600 mg/kg: nitrotyrosine, ZO-1 tight junctions, TUNEL, liver function tests; conditions: 15 out of 20 ApAP treated animals; data not shown
[2] = test system: CD1 or C57BL/6 mice; test: Acetic acid-induced abdominal writhing assay (visceral pain); conditions: for ED50: Mus musculus, equimolar dosing; for Analgesia in acetic acid-induced writhing assay: high dose (100 mg/kg), all experimental cohorts
Text: (§1) The investigators were blinded till the completion of all the experiments. To ensure objectivity, investigators were blinded for the acetic acid and tail flick experiments. In the CFA/von Frey and Hargreaves assays, one investigator did the drug pre-treatments, and another investigator at another location who was not aware of the treatments conducted the behavioral testing. Moreover, these studies used the eVF device that electronically registers the grams of force necessary to elicit paw withdrawal, eliminating bias that confounded older versions of this test in which an investigator used a series of individual von Frey microfilaments to determine paw withdrawal thresholds. Six separate experimenters were involved in the data acquisition for behavioral testing, and another separate investigator performed all the statistical analyses using GraphPad Prism Version 9.1.2. Statistical significance was determined by p < 0.05; one-way ANOVA followed by Sidak’s multiple comparisons post hoc test. Mixed-gender experiments were powered to test for gender effects, and different ages of rodents were also included for the experiments – young (2 months) and aged (20 months) to tease out whether there are any effects of age-related changes in nociceptive sensitivity under naïve, and inflammatory pre-clinical rodent pain models. For the aged rats and mice, we could only obtain male Sprague–Dawley rats and male C57BL/6 mice of 20 months old from all commercial animal vendors and from the National Institute of Aging (NIA). So, only these rodents were used for the older animal experimental cohort. Old female rats and mice were not available at the time when these experiments were conducted. For ED50 calculation, dose–response curves were calculated with regression analysis and log transformation using GraphPad Prism 9.1.2.
In this model of visceral pain, abdominal contraction (writhing), in which contraction of the abdominal muscles and stretching of the hind limbs is induced in mice in response to an ip injection of 0.4% acetic acid at a dose of 10 mL/kg 25 min after drug administration, is assessed. Specifically, the number of writhes is counted for 10 min, beginning 5 min after acetic acid injection. […] CD1 (young male and female) or C57BL/6 (aged male) mice were used. For the abdominal writhing assays, we used n = 35 aged male mice, n = 70 young male mice, and n = 70 young female mice.

[3] = test system: CD1 or C57BL/6 mice; test: Cold stimulation tail flick somatic pain assay; conditions: for ED50: Mus musculus, equimolar dosing; for Analgesia in cold tail-flick assay: high dose (100 mg/kg), all experimental cohorts
Text: as §1
Half of the tail was immersed in ice-cold water maintained at 4 °C. For the tail-flick assays, we used n = 70 aged male mice, n = 90 young male mice, and n = 120 young female mice. Based on the availability of mice at the time of the experiments, different numbers of animals were assigned to different cohorts of experimental animals. Tail flick assay experiments were conducted on an open bench in a dedicated room at the LSUHSC New Orleans Neuroscience Center of Excellence vivarium. Mice were allowed to acclimate to the laboratory environment for 1 h prior to testing. To restrain the mice for the test, disposable plastic 50 mL screw-capped conical centrifuge tubes were cut at the tip to create a 0.5 cm opening to allow the mice to breathe freely. Another 0.5 cm opening was cut into the cap to allow access of the tail to the water bath. A 500 mL glass beaker was filled with 450 mL of ice-cold distilled water maintained at 4 °C with the addition of ice and determined with a glass thermometer. Mice were held over the opening of the water bath, and their tails submerged approximately halfway into the water. The nociceptive threshold was taken as the latency until the mice flicked their tail tip or removed the tail. The time from immersion to the attempted tail tip removal was measured to 1/10th of a sec with a digital laboratory timer. To minimize damage to the tail, a 60-s cut-off was utilized. […] Injections were at doses of 32 mg/kg and 100 mg/kg. 30 min post-drug administration tail-flick/withdrawal latency was measured.

[4] = test system: Sprague–Dawley rats; test: CFA inflammatory pain / von Frey with electronic detection (eVF); conditions: for Threshold for paw withdrawal, CFA-injected paw: young male rats, 18 g after CFA; for ED50: Rattus norvegicus, equimolar dosing; for Threshold for paw withdrawal, CFA-injected left hind paw: young female and aged male rats (Supplementary Fig. 3), from 25 g
Text: as §1
In this model of mechanonociception, one hind paw at a time is stimulated with an electronic von Frey (eVF) filament (noxious source) until the animal retracts the paw from the mechanical stimulus. von Frey tests were conducted in a dedicated room at the LSUHSC New Orleans Neuroscience Center of Excellence vivarium. Rats were acclimated to their environment for 2 days for 30 min/day prior to testing. To obtain eVF pressure recordings, each animal was placed in an individual plastic observation compartment on a perforated metallic grid platform, which provided access to the plantar surface of the hind paws. After acclimation to the environment for 30 min, mechanical hypersensitivity was assessed by stimulating the mid-plantar area of each hind paw with a rigid tip von Frey filament attached to the eVF meter (Ugo Basile 38,450) until animals withdrew the paw from the filament. The withdrawal threshold was defined as the average force/pressure (g) required for the rat to withdraw the stimulated paw. A brisk withdrawal of the paw (often followed by a sustained retraction and/or licking) was considered a positive response, but paw withdrawals due to locomotion or weight shifting were not counted. The von Frey studies were conducted with an eVF device that electronically registers the grams of force necessary to elicit paw withdrawal in order to eliminate bias that confounded previous older versions of this test. Baseline withdrawal thresholds of both the right and left paws were recorded, and animals were assigned to different treatment groups so that each group had approximately equal withdrawal threshold averages in both paws. After baseline testing, treated animals received subcutaneous plantar injection (150 μl) of 50% CFA diluted and freshly mixed in sterile (0.9%) saline into the left hind paw unilaterally, while control animals received a plantar injection (150 µl) of 0.9% NaCl into their left hind paw. CFA induces inflammation, resulting in a left hind paw that is hypersensitive to mechanical stimulus, while the right hind paw serves as a within-subject baseline for each animal. […]

[5] = read-out: ED50 Acetic acid writhing Assay (Mice), Aged (Male)
[6] = read-out: ED50 Acetic acid writhing Assay (Mice), Young (Female)
[7] = read-out: ED50 Acetic acid writhing Assay (Mice), Young (Male)
[8] = read-out: ED50 Tail Flick Assay (Mice), Aged (Male)
[9] = read-out: ED50 Tail Flick Assay (Mice), Young (Female)
[10] = read-out: ED50 Tail Flick Assay (Mice), Young (Male)
[11] = 100 mg/kg PO (cumulative dosing)
[12] = read-out: ED50 von-Frey Assay (Rats), Aged (Male)
[13] = read-out: ED50 von-Frey Assay (Rats), Young (Female)
[14] = read-out: ED50 von-Frey Assay (Rats), Young (Male)

Compound: CC(=O)Nc1ccc(O)cc1 [ApAP, acetaminophen, reference compound]
- Animals dead in 48 h [1]: 75%
- ED50 [2, 5]: 71.6 µmol/kg
- ED50 [2, 6]: 661 µmol/kg
- ED50 [2, 7]: 75.8 µmol/kg
- Analgesia in acetic acid-induced writhing assay [2]: significant analgesia
- ED50 [3, 8]: 281 µmol/kg
- ED50 [3, 9]: 70.3 µmol/kg
- ED50 [3, 10]: 71.8 µmol/kg
- Analgesia in cold tail-flick assay [3]: significant analgesia
- Threshold for paw withdrawal, CFA-injected paw ([4]; 32 mg/kg PO): 34 g
- Threshold for paw withdrawal, CFA-injected paw [4, 11]: 50 g
- ED50 [4, 12]: 358 µmol/kg
- ED50 [4, 13]: 292 µmol/kg
- ED50 [4, 14]: 574 µmol/kg

Compound: CCN(CC)C(=O)c1ccccc1S(=O)(=O)NCC(=O)Nc1ccc(O)cc1 [SRP-001, N,N-diethyl-2-[[2-(4-hydroxyanilino)-2-oxo-ethyl]sulfamoyl]benzamide]
- Animals dead in 48 h [1]: none
- ED50 [2, 5]: 22.1 µmol/kg
- ED50 [2, 6]: 237 µmol/kg
- ED50 [2, 7]: 31.1 µmol/kg
- Analgesia in acetic acid-induced writhing assay [2]: significant analgesia
- ED50 [3, 8]: 81.6 µmol/kg
- ED50 [3, 9]: 44.9 µmol/kg
- ED50 [3, 10]: 60 µmol/kg
- Analgesia in cold tail-flick assay [3]: significant analgesia
- Threshold for paw withdrawal, CFA-injected paw ([4]; 32 mg/kg PO): 40 g
- Threshold for paw withdrawal, CFA-injected left hind paw ([4]; 32 mg/kg): 32 g
- Threshold for paw withdrawal, CFA-injected paw [4, 11]: 55 g
- Threshold for paw withdrawal, CFA-injected left hind paw ([4]; 100 mg/kg): 40 g
- ED50 [4, 12]: 454 µmol/kg
- ED50 [4, 13]: 121 µmol/kg
- ED50 [4, 14]: 190 µmol/kg
